Like-named read-outs stand apart in the source and are kept apart here. Marks after values point to notes of the source that are not given here.
Key:
[1] = tested on: MDR1-MDCK cell monolayers; assay: MDR1-MDCK Efflux Ratio Assay; assay type: in vitro ADME; conditions: MDR1-MDCK cells, 2 hr, pH 7.4
Procedure, shortened: (§1)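 Bidirectional (apical↔basolateral) transport across confluent MDR1-MDCK monolayers in HBSS/10 mM HEPES pH 7.4, receiver buffer with 1% BSA; 2 hr at 37° C, 5% CO2. Donor sampled at 0 and 120 min, receiver at 120 min, quantified by LC-MS/MS in triplicate. Papp, efflux ratio and percent recovery calculated.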

[2] = target: OGA (S400 O-GLCNAC), HEK-293T cells transfected with Tau-V5 (Homo sapiens (Human), UniProt O60502); assay: Cellular OGA-Tau MSD Assay; assay type: cell-based
Procedure, shortened: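 HEK-293T cells transfected with OGA and Tau-V5 plasmids were treated overnight at 37° C with a 10-point, 3-fold titration from 1 uM. Lysates went onto V5-antibody MSD plates to capture Tau, probed with a Tau O-GlcNAc antibody and read by electrochemiluminescence; IC50 from a 4-parameter fit.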

[3] = target: Recombinant full length human OGA enzyme (Homo sapiens (Human), UniProt O60502); assay: OGA Enzyme Inhibition Biochemical Assay; conditions: 1 nM OGA, 100 μM 4-MUGlcNAc, pH 6.4
Procedure, shortened: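 Full-length recombinant human OGA with fluorogenic 4-MUGlcNAc in McIlvaine buffer pH 6.4, 0.01% BSA; 90 min at room temperature, glycine pH 10 quench, fluorescence Ex 355/Em 460 nm. 10-point, 4-fold dilution from 20 μM; 4-parameter variable-slope fit.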

[4] = Rat Liver Microsome Stability Assay; assay type: in vitro ADME
P-gp (MDR1) = assay: MDR1-MDCK Efflux Ratio Assay; assay type: in vitro ADME; conditions: dog, read-out: MDR1-MDCK Efflux Ratio (B-A/A-B)
Procedure, shortened: as §1

[5] = HEK-293T cells, Tau-S400-GlcNAc MSD readout
[6] = rat liver microsomes, 1 uM compound
[7] = MDCK-MDR1, pH 7.4, MDR1-MDCK cells, 2 hr, pH 7.4
[8] = repeated assay, value marked with asterisk (*)

Chain of OGA (S400 O-GLCNAC), HEK-293T cells transfected with Tau-V5 (O60502 whole entry): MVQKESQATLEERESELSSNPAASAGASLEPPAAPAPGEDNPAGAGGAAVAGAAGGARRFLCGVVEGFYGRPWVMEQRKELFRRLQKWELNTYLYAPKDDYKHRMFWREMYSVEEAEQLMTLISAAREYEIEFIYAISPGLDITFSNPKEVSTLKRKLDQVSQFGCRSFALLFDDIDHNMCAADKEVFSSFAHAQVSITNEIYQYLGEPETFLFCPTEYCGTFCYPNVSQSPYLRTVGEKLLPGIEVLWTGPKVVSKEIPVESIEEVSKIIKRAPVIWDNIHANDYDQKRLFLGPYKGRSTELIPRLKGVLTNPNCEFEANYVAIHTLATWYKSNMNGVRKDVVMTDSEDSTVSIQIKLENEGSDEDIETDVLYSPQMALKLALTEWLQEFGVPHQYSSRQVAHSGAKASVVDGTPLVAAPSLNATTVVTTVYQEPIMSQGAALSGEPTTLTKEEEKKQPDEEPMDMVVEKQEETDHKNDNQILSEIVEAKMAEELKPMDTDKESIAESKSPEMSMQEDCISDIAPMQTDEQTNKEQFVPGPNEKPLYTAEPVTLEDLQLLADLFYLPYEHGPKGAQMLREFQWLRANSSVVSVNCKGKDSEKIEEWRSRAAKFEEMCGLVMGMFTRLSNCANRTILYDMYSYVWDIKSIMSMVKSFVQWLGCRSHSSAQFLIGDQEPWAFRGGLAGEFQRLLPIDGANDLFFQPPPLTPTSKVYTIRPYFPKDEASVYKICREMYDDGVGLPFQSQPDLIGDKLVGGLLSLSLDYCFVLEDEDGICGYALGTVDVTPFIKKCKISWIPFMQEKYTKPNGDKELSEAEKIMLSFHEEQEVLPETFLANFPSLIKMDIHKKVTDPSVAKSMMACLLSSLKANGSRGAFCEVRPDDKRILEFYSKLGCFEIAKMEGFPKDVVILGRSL
Chain of Recombinant full length human OGA enzyme (O60502 whole entry): as above

Compound	MDR1-MDCK Efflux Ratio (B-A/A-B) [1]	IC50 [2, 5] [nM]	IC50 [3] [nM]	RLM % Qh (%) [4, 6] [%]	efflux ratio at 2 h (P-gp (MDR1); [7])	efflux ratio at 2 h (P-gp (MDR1); MDCK-MDR1, pH 7.4, repeated assay, value marked with asterisk (*))	IC50 [2, 8] [nM]	RLM % Qh (%) [4, 8]
N-(4-fluoro-5-(((2S,4R)-4-((6-methoxypyrimidin-4-yl-4,5,6-^13C3)oxy)-2 methylpyrrolidin-1-yl)methyl)thiazol-2-yl)acetamide [Example 1-153]	2.3	1	< 1	39				
COc1cc(O[C@@H]2CC[C@H](C)N(Cc3cnc(NC(C)=O)s3)C2)ncn1 [Example 1-44, N-(5-(((2S,5R)-5-((6-methoxypyrimidin-4-yl)oxy)-2-methylpiperidin-1-yl)methyl)thiazol-2-yl)acetamide]		2	< 1	88	9.3			
COc1cnc(O[C@@H]2C[C@H](C)N(Cc3sc(NC(C)=O)nc3F)C2)cn1 [Example 1-105, N-(4-fluoro-5-(((2S,4R)-4-((5-methoxypyrazin-2-yl)oxy)-2-methylpyrrolidin-1-yl)methyl)thiazol-2-yl)acetamide]		2	< 1	74	2.4			
CC(=O)Nc1nc(F)c(CN2C[C@H](Oc3ncccn3)C[C@@H]2C)s1 [Example 1-93, N-(4-fluoro-5-(((2S,4R)-2-methyl-4-(pyrimidin-2-yloxy)pyrrolidin-1-yl)methyl)thiazol-2-yl)acetamide]		2	< 1	42	14.3			
COc1ccc(O[C@@H]2C[C@H](C)N(Cc3sc(NC(C)=O)nc3F)C2)nc1 [Example 1-98, N-(4-fluoro-5-(((2S,4R)-4-((5-methoxypyridin-2-yl)oxy)-2-methylpyrrolidin-1-yl)methyl)thiazol-2-yl)acetamide]		1	< 1	93	2.1			
CC(=O)Nc1ncc(CN2C[C@H](Oc3cc(NC4CCC4)ncn3)C[C@@H]2C)s1 [Example 1-134, N-(5-(((2S,4R)-4-((6-(cyclobutylamino)pyrimidin-4-yl)oxy)-2-methylpyrrolidin-1-yl)methyl)thiazol-2-yl)acetamide]		1	< 1	70	53.4			
COc1cc(O[C@H]2CC[C@H](C)N(Cc3cnc(NC(C)=O)s3)C2)ncn1 [Example 1-43, N-(5-(((2S,5S)-5-((6-methoxypyrimidin-4-yl)oxy)-2-methylpiperidin-1-yl)methyl)thiazol-2-yl)acetamide]		1	< 1	81	6.9			
CC(=O)Nc1ncc(CN2C[C@H](Oc3ccc(F)c(C)n3)C[C@@H]2C)s1 [Example 1-15, N-(5-(((2S,4R)-4-((5-fluoro-6-methylpyridin-2-yl)oxy)-2-methylpyrrolidin-1-yl)methyl)thiazol-2-yl)acetamide]		2	< 1	95	2.2			
COc1cc(O[C@@H]2CCN(Cc3sc(NC(C)=O)nc3F)C2)ncn1 [Example 1-28, (R)—N-(4-fluoro-5-((3-((6-methoxypyrimidin-4-yl)oxy)pyrrolidin-1-yl)methyl)thiazol-2-yl)acetamide]		47	16	33	1.8			
CC(=O)Nc1nc(F)c(CN2CC[C@@H](Oc3cc(C)nc(C)c3)C2)s1 [Example 1-49, (R)—N-(5-((3-((2,6-dimethylpyridin-4-yl)oxy)pyrrolidin-1-yl)methyl)-4-fluorothiazol-2-yl)acetamide]		10	< 1	34	18.9			
COc1nc(C)cc(O[C@@H]2C[C@H](C)N(Cc3cnc(NC(C)=O)s3)C2)n1 [Example 1-75, N-(5-(((2S,4R)-4-((2-methoxy-6-methylpyrimidin-4-yl)oxy)-2-methylpyrrolidin-1-yl)methyl)thiazol-2-yl)acetamide]		2	< 1	58	6.7			
[2H]c1nc(NC(C)=O)sc1CN1C[C@H](Oc2cc(OC)ncn2)C[C@@H]1C (single isomer, unassigned) [Example 1-162]		19	< 1	35	6.2			
COc1nccc(O[C@@H]2C[C@H](C)N(Cc3sc(NC(C)=O)nc3F)C2)n1 [Example 1-92, N-(4-fluoro-5-(((2S,4R)-4-((2-methoxypyrimidin-4-yl)oxy)-2-methylpyrrolidin-1-yl)methyl)thiazol-2-yl)acetamide]		1	< 1	54	10			
CC(=O)Nc1ncc(CN2C[C@H](Oc3cc(N4CCOCC4)ncn3)C[C@@H]2C)s1 [Example 1-130, N-(5-(((2S,4R)-2-methyl-4-((6-morpholinopyrimidin-4-yl)oxy)pyrrolidin-1-yl)methyl)thiazol-2-yl)acetamide]		3	< 1	37	30.3			
CC(=O)Nc1ncc(CN2C[C@H](Oc3cc(C)nc(C)c3)C[C@H]2C)s1 [Example 1-61, N-(5-(((2R,4R)-4-((2,6-dimethylpyridin-4-yl)oxy)-2-methylpyrrolidin-1-yl)methyl)thiazol-2-yl)acetamide]		39	7	31	45.2			
CC(=O)Nc1nc(F)c(CN2CCC[C@@H](Oc3cc(C)nc(C)c3)C2)s1 [Example 1-55, (R)—N-(5-((3-((2,6-dimethylpyridin-4-yl)oxy)piperidin-1-yl)methyl)-4-fluorothiazol-2-yl)acetamide]		13	1.1	85	19			
CC(=O)Nc1nc(F)c(CN2C[C@H](Oc3ncccc3F)C[C@@H]2C)s1 [Example 1-94, N-(4-fluoro-5-(((2S,4R)-4-((3-fluoropyridin-2-yl)oxy)-2-methylpyrrolidin-1-yl)methyl)thiazol-2-yl)acetamide]		2	< 1	91	1.8			
CC(=O)Nc1nc(F)c(CN2C[C@@H](Oc3cc(C)nc(C)c3)C[C@@H]2C)s1 [Example 1-52, N-(5-(((2S,4S)-4-((2,6-dimethylpyridin-4-yl)oxy)-2-methylpyrrolidin-1-yl)methyl)-4-fluorothiazol-2-yl)acetamide]		55	33	76	12.9			
CC(=O)Nc1ncc(CN2C[C@H](Oc3ccnc(OC(F)F)c3)C[C@@H]2C)s1 [Example 1-20, N-(5-(((2S,4R)-4-((2-(difluoromethoxy)pyridin-4-yl)oxy)-2-methylpyrrolidin-1-yl)methyl)thiazol-2-yl)acetamide]			< 1	63	2.9	3	7	
CC(=O)Nc1nc(F)c(CN2C[C@H](Oc3ccc(F)cn3)C[C@@H]2C)s1 [Example 1-47, N-(4-fluoro-5-(((2S,4R)-4-((5-fluoropyridin-2-yl)oxy)-2-methylpyrrolidin-1-yl)methyl)thiazol-2-yl)acetamide]		1	< 1	76	1.5			
CC(=O)Nc1ncc(CN2C[C@H](Oc3ccc(C#N)cn3)C[C@@H]2C)s1 [Example 1-16, N-(5-(((2S,4R)-4-((5-cyanopyridin-2-yl)oxy)-2-methylpyrrolidin-1-yl)methyl)thiazol-2-yl)acetamide]		1	< 1	50	9.7			51* %
